The target of the assay is T1, human GPR40 (Homo sapiens, UniProt O14842).
T1 construct: expressed in transfected cells
Put plainly: Inositol Phosphate Turnover (IP1) Assay. Particulars: HEK cells stably expressing human GPR40; CisBio IP-One kit; 60 minutes at 37 degrees; read-out: Human IP1 EC50. The assay is classed as cell-based. The essentials:
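HEK cells stably expressing GPR40, plated 16 h, then exposed to compound in stimulation buffer for 60 min at 37 °C. IP1 accumulation read by HTRF IP-One detection after 60 min at RT.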

EC50 data for 25 molecules are collected here from patent US10968232B2 (Merck Sharp & Dohme Corp., priority 2016, dated 2021).

SMILES strings stand for the structures.

In general, EC50 refers to the concentration needed to bring the measured effect to its halfway point.

T1 sequence (O14842 whole entry): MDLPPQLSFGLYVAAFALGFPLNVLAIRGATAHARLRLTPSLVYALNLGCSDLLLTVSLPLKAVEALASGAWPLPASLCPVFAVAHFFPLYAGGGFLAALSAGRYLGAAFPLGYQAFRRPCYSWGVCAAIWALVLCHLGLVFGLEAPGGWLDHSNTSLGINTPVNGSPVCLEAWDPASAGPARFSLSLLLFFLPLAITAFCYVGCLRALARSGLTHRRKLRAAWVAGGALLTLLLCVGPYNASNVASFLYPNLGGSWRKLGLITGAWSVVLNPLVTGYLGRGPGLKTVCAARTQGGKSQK

As to `C[C@H](C(=O)O)[C@H](c1ccc2c(c1)OC1(CC2)CCN(Cc2cc(C(F)(F)F)ccc2F)CC1)C1CC1` [Example 27, (2S,3R)-3-cyclopropyl-3-(1′-(2-fluoro-5-(trifluoromethyl)benzyl)spiro-[chroman-2,4′-piperidin]-7-yl)-2-methylpropanoic Acid], the concentration for a half-maximal effect (EC50) turned out to be 49.5 nM.

Regarding `CC(c1cc(F)cc(F)c1Cl)N1CCC2(CCc3ccc([C@H](C4CC4)[C@H](C)C(=O)O)c(F)c3O2)CC1` (single isomer, unassigned) [Example 17, (2S,3R)-3-(1′-((S or R)-1-(2-chloro-3,5-difluorophenyl)ethyl)-8-fluorospiro-[chroman-2,4′-piperidin]-7-yl)-3-cyclopropyl-2-methylpropanoic Acid], the EC50 worked out at 37.3 nM. For the molecule `C[C@H](C(=O)O)[C@H](c1ccc2c(c1)OC1(CC2)CCC(N(C)c2cc(C(F)(F)F)ccc2C(F)(F)F)CC1)C1CC1` (stereo partly drawn) [Example 66, (2S,3R)-3-(4′-((2,5-bis (trifluoromethyl)phenyl) (methyl)amino)spiro [chroman-2,1′-cyclohexan]-7-yl)-3-cyclopropyl-2-methylpropanoic acid], the half-maximal effective concentration (EC50) was determined as 4.27 nM. In the case of `CC(c1cc(Cl)ccc1OC(F)(F)F)N1CCC2(CCc3ccc([C@H](C4CC4)[C@H](C)C(=O)O)cc3O2)CC1` (stereo partly drawn) [Example 134, Sodium (2S,3R)-3-(1′-(1-(5-chloro-2-(trifluoromethoxy)phenyl)ethyl)spiro[chromane-2,4′-piperidin]-7-yl)-3-cyclopropyl-2-methylpropanoate], the concentration giving a half-maximal response (EC50) was 1.4 nM. In the case of `C[C@H](C(=O)O)[C@H](c1ccc2c(c1)OC1(CCCN([C@H](C)c3cc(C(F)(F)F)ccc3C(F)(F)F)C1)CC2)C1CC1` (single isomer, unassigned) [Example 73, (2S,3R)-3-((R or S)-1′-((R)-1-(2,5-bis(trifluoromethyl)phenyl)ethyl)spiro-[chroman-2,3′-piperidin]-7-yl)-3-cyclopropyl-2-methylpropanoic Acid] it was 186 nM; in that of `C[C@H](C(=O)O)[C@H](c1ccc2c(c1)OC1(CC2)CCN(c2ccc3nc(C(F)(F)F)cn3n2)CC1)C1CC1` [Example 71, (2S,3R)-3-cyclopropyl-2-methyl-3-(1′-(2-(trifluoromethyl)imidazo[1,2-b]-pyridazin-6-yl)spiro[chroman-2,4′-piperidin]-7-yl)propanoic Acid], 545 nM; in that of `Cc1nocc1-c1ccc(OC(F)(F)F)c(C(C)N2CCC3(CCc4ccc([C@H](C5CC5)[C@H](C)C(=O)O)cc4O3)CC2)c1` (single isomer, unassigned) [Example 116, (2S,3R)-3-cyclopropyl-2-methyl-3-(1′-((R or S)-1-(5-(3-methylisoxazol-4-yl)-2-(trifluoromethoxy)phenyl)eth-yl)spiro[chroman-2,4′-piperidin]-7-yl)propanoic acid], 323 nM. As for `C[C@H](C(=O)O)[C@H](c1ccc2c(c1)OC1(CC2)CC(N(C)[C@@H](C)c2cc(C(F)(F)F)ccc2C(F)(F)F)C1)C1CC1` (stereo partly drawn) [Example 100, (2S,3R)-3-(3′-(((S)-1-(2,5-bis(trifluoro-methyl)phenyl)ethyl)(meth-yl)amino)spiro[chro-man-2,1′-cyclobutan]-7-yl)-3-cyclopropyl-2-methylpropanic acid], the EC50 was 4.19 nM. For `CC(c1cc(Cl)cc(Cl)c1OC(F)F)N1CCC2(CCc3ccc([C@H](C4CC4)[C@H](C)C(=O)O)cc3O2)CC1` (single isomer, unassigned) [Example 80, (2S,3R)-3-cycloprop-3-(1′-((S or R)-1-(3,5-dichloro-2-(difluoro-methoxy)phenyl)-ethyl)spiro[chroman-2,4′-piperidin]-7-yl)-2-methylpropanoic acid], the EC50 was determined as 3.22 nM. Turning to `CC(c1cc(Cl)ccc1C(F)(F)F)N1CCC2(CCc3ccc([C@H](C4CC4)[C@H](C)C(=O)O)cc3O2)CC1` (mixture of isomers) [Example 5, (2S3R)-3-(1′-((RS)-1-(5-chloro-2-(trifluoromethyl)phenyl)ethyl)spiro[chroman-2,4′-piperidin]-7-yl)-3-cyclopropyl-2-methylpropanoic Acid], the EC50 was determined as 2.71 nM. As for `C[C@H](C(=O)O)[C@H](c1ccc2c(c1)OC1(CCCN([C@H](C)c3cc(C(F)(F)F)ccc3C(F)(F)F)CC1)CC2)C1CC1` (single isomer, unassigned) [Example 49, (2S,3R)-3-((R or S)-1-((R)-1-(2,5-bis (trifluoromethyl)phenyl)ethyl)spiro[azepane-4,2′-chroman]-7′-yl)-3-cyclopropyl-2-methylpropanoic acid], the 50% effective concentration (EC50) is 0.527 nM. For the molecule `C[C@H](C(=O)O)[C@H](c1ccc2c(c1)OC1(CC2)CCN(Cc2cc(C(F)(F)F)ccc2C(F)(F)F)CC1)C1CC1` [Example 129, Sodium (2S,3R)-3-(1′-(2,5-bis(trifluoromethyl)benzyl)spiro[chromane-2,4′-piperidin]-7-yl)-3-cyclopropyl-2-methylpropanoate], the EC50 worked out at 3.8 nM. For the molecule `C[C@H](C(=O)O)[C@H](c1ccc2c(c1F)OC1(CC2)CCN(Cc2cc(F)ccc2OC(F)(F)F)CC1)C1CC1` [Example 3, (2S,3R)-3-cyclopropyl-3-(8-fluoro-1′-(5-fluoro-2-(trifluoromethoxy)-benzyl)spiro[chroman-2,4′-piperidin]-7-yl)-2-methylpropanoic acid], the concentration for a half-maximal effect (EC50) is 11.7 nM. Consider `C[C@H](C(=O)O)[C@H](c1ccc2c(c1)OC1(CC2)[C@@H]2CC[C@H]1CN([C@@H](C)c1cc(F)ccc1C(F)(F)F)C2)C1CC1` (single isomer, unassigned) [Example 82], for which the EC50 worked out at 249 nM.

In the case of `C[C@H](C(=O)O)[C@H](c1ccc2c(c1)OC1(CC2)CCN(c2cccc(C(F)(F)F)c2)CC1)C1CC1` [Example 41, (2S,3R)-3-cyclopropyl-2-methyl-3-(1′-(3-(trifluoromethyl)phenyl)spiro[chroman-2,4′-piperidin]-7-yl)propanoic acid], the half-maximal effective concentration (EC50) came to 12.9 nM. With `C[C@H](C(=O)O)[C@H](c1ccc2c(c1)OC1(CC2)CC(N[C@H](C)c2cc(C(F)(F)F)ccc2C(F)(F)F)C1)C1CC1` (stereo partly drawn) [Example 93, (2S,3R)-3-(3′-(((R)-1-(2,5-bis(trifluoro-methyl)phenyl)ethyl)a-mino)spiro[chroman-2,1′-cyclo-butan]-7-yl)-3-cyclopropyl-2-methylpropanic acid], the half-maximal effective concentration (EC50) stood at 5.71 nM. As for `C[C@H](C(=O)O)[C@H](c1ccc2c(c1)OC1(CC2)[C@@H]2CC[C@H]1CN([C@H](C)c1cc(C(F)(F)F)ccc1C(F)(F)F)C2)C1CC1` (single isomer, unassigned) [Example 83], the EC50 was found to be 798 nM.

Consider `CC(c1cc(Cl)ccc1OC(F)F)N1CCC2(CCc3ccc([C@H](C4CC4)[C@H](C)C(=O)O)c(F)c3O2)CC1` (single isomer, unassigned) [Example 34, (2S,3R)-3-(1′-((S or R)-1-(5-chloro-2-(difluoro-methoxy)phenyl)ethyl)-8-fluorospiro-[chroman-2,4′-piperidin]-7-yl)-3-cyclopropyl-2-methylpropanoic acid], for which the EC50 is 8.9 nM.

As to `COc1ncc(C(F)(F)F)cc1C(C)N1CCC2(CCc3ccc([C@H](C4CC4)[C@H](C)C(=O)O)cc3O2)CC1` (single isomer, unassigned) [Example 103, (2S,3R)-3-cyclopropyl-3-(1′-((S or R)-1-(2-methoxy-5-(trifluoro-methyl)pyridin-3-yl)ethyl)spiro[chroman-2,4′-piperidin]-7-yl)-2-methylpropanoic acid], the EC50 was determined as 140 nM. As to `CC(c1cc(C2CC2)ccc1OC(F)(F)F)N1CCC2(CCc3ccc([C@H](C4CC4)[C@H](C)C(=O)O)cc3O2)CC1` (stereo partly drawn) [Example 111, (2S,3R)-3-cyclopropyl-3-(1′-(1-(5-cyclopropyl-2-(trifluoromethoxy)phenyl)ethyl)spiro[chroman-2,4′-piperidin]-7-yl)-2-methylpropanoic Acid], the concentration giving a half-maximal response (EC50) worked out at 20.2 nM. As to `CC(c1ncccc1C(F)(F)F)N1CCC2(CCc3ccc([C@H](C4CC4)[C@H](C)C(=O)O)cc3O2)CC1` (single isomer, unassigned) [Example 43, (2S,3R)-3-cyclopropyl-2-methyl-3-(1′-((S or R)-1-(3-(trifluoromethyl)-pyridin-2-yl)ethyl)spiro[chroman-2,4′-piperidin]-7-yl)propanoic Acid], the concentration giving a half-maximal response (EC50) was found to be 60.2 nM. Regarding `CC(c1cc(Cl)ccc1OC(F)(F)F)N1CCC2(CCc3ccc([C@H](C4CC4)[C@H](C)C(=O)O)cc3O2)CC1` (stereo partly drawn) [Example 133, Sodium (2S,3R)-3-(1′-(1-(5-chloro-2-(trifluoromethoxy)phenyl)ethyl)spiro[chromane-2,4′-piperidin]-7-yl)-3-cyclopropyl-2-methylpropanoate], the concentration giving a half-maximal response (EC50) amounted to 3.3 nM. Then `C[C@H](NC1CC2(CCc3ccc([C@H](C4CC4)[C@H](C)C(=O)O)cc3O2)C1)c1cc(C(F)(F)F)ccc1C(F)(F)F` (single isomer, unassigned) [Example 92], with 24.6 nM; and `Cc1nc(C(F)(F)F)c(CN2CCC3(CCc4ccc([C@H](C5CC5)[C@H](C)C(=O)O)cc4O3)CC2)s1` [Example 53, (2S,3R)-3-cyclopropyl-2-methyl-3-(1′-((2-methyl-4-(trifluoromethyl)thiazol-5-yl)methyl)spiro[chroman-2,4′-piperidin]-7-yl)propanoic Acid], with 107 nM. Take `C[C@H](C(=O)O)[C@H](c1ccc2c(c1)OC1(CCCN([C@@H](C)c3cc(C(F)(F)F)ccc3C(F)(F)F)CC1)CC2)C1CC1` (single isomer, unassigned) [Example 51, (2S,3R)-3-((R or S)-1-((S)-1-(2,5-bis (trifluoromethyl)phenyl)ethyl)spiro[azepane-4,2′-chroman]-7′-yl)-3-cyclopropyl-2-methylpropanoic acid]: the EC50 was 14.1 nM.
